{
  "source": "patent US20100190805A1",
  "about": "“PREPARATION FOR THE TREATMENT OF EQUINE LAMINITIS” (BOEHRINGER INGELHEIM VETMEDICA GMBH, priority 2007, published 2010)",
  "key": {"[1]": {"system": "horses suffering from acute laminitis", "test": "Treatment of horses suffering from laminitis with allopurinol (case reports)", "assay_type": "in vivo, horse", "details": "oral allopurinol 1 to 50 mg/kg of body weight", "source_text": "Thus there are also positive effects on the general condition. […] Only by treating with allopurinol is it possible to carry out this treatment as horses suffering acute pain cannot be fitted with supports."}, "[2]": {"details": "horses, cited from earlier work"}},
  "data": [
    {"smiles": "Oc1ncnc2[nH]ncc12", "note": "[allopurinol]", "values": [
      {"measurement": "appetite / general condition", "setting": "[1]", "value": "appetite returns"},
      {"measurement": "inflammation", "setting": "[1]", "value": "decline after three days' treatment"},
      {"measurement": "lameness", "setting": "[1]", "value": "reduced"},
      {"measurement": "pain", "setting": "[1]", "value": "decline after three days' treatment"},
      {"measurement": "time until horses can be fitted with an orthopaedic hoof support", "setting": "[1]; time after the start of treatment", "value": "roughly one week after the start of treatment"},
      {"measurement": "bioavailability after oral administration", "setting": "[2]; oral administration", "value": 14.3, "unit": "%"},
      {"measurement": "sum of the areas under the concentration/time curves of allopurinol and oxypurinol after oral administration of allopurinol", "setting": "[2]; oral versus intravenous allopurinol", "value": "identical to that of allopurinol administered intravenously"}
    ]}
  ]
}
